In PMC10367051, “Comprehensive Mechanistic View of the Hydrolysis of Oxadiazole-Based Inhibitors by Histone Deacetylase 6 (HDAC6)” (ACS Chemical Biology, 2023):

What was measured:
wild-type zHDAC6 = molecular target: T1, wild-type zHDAC6 (Danio rerio, UniProt F8W4B7); experiment: Inhibitor hydrolysis in vitro by purified wild-type HDAC6 (LC-MS/MS); type: biochemical; conditions: 20 μM 8, 2 μM zHDAC6, 30 °C
T1 construct: Danio rerio HDAC6 (amino acids 440–798; zHDAC6); His (N, cleaved yes); MBP (N, cleaved yes); made in house; host or cells: RIPL Escherichia coli
T1 sequence (F8W4B7 440-798): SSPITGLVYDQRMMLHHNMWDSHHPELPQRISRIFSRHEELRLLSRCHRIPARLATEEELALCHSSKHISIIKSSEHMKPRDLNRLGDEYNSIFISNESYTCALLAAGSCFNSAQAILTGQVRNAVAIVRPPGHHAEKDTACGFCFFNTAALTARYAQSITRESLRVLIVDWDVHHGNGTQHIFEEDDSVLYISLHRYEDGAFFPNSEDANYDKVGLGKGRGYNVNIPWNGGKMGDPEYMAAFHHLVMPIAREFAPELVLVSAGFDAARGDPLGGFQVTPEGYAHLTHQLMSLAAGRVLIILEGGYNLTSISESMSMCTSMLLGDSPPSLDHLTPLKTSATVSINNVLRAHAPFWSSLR
Method: The second catalytic domain of Danio rerio HDAC6 (amino acids 440–798; zHDAC6) was expressed in RIPL Escherichia coli as described previously using the pEC566-zHDAC6 expression vector.[16],[38] Briefly, bacteria were incubated at 37 °C with shaking (250 rpm) until the optical density reached an OD600 = 0.5. Then, the culture was cooled to 18 °C for 1 h, and recombinant protein expression was induced by the addition of 75 μM isopropyl β-D-1-thiogalactopyranoside together with 200 μM ZnSO4. The culture was grown at 18 °C for an additional 18 h and harvested by centrifugation at 5500g for 15 min. […] The purity of protein preparations was monitored by SDS-PAGE (Figure S2).
(§1) Mass spectrometry quantification of inhibitors/reaction products was carried out with a Shimadzu LCMS-8040 instrument (Shimadzu, HPLC Prominence system). […] Multiple reaction monitoring (MRM) parameters were optimized for each analyte, and corresponding major CID fragments were used for quantification. Analytes were quantified using corresponding calibration curves generated from pure compounds dissolved in water.
[…] Four microliter aliquots of reaction mixtures were injected into the system directly from the 96-well plate, and inhibitors/reaction products were quantitated as described above.

HEK293T cell lysates = experiment: Inhibitor hydrolysis in HEK293T cell lysates (LC-MS/MS); type: in vitro ADME; conditions: 20 μM 8, 2.5 mg mL^–1 protein, 37 °C
Method: (§2) Mass spectrometry quantification of inhibitors/reaction products was carried out with a Shimadzu LCMS-8040 instrument (Shimadzu, HPLC Prominence system). Analytes were separated on a Kinetex XB-C18 2.6 μm, 100 Å column (50 × 2.1 mm; Phenomenex) in a linear 15–60% CH3CN/H2O gradient containing 0.1% formic acid at a flow rate of 0.8 mL min^–1 over 4 min. Multiple reaction monitoring (MRM) parameters were optimized for each analyte, and corresponding major CID fragments were used for quantification. Analytes were quantified using corresponding calibration curves generated from pure compounds dissolved in water.
HEK293T cells and the HEK293T cell line stably transfected with human HDAC6 were grown in FreeStyle 293 medium supplemented with 1% FBS. Cells were harvested by centrifugation at 500g for 5 min, and cell pellets were resuspended in the lysis buffer (50 mM HEPES, 140 mM NaCl, 10 mM KCl, and 0.5% NP-40 at pH 7.4). Following short sonication (3 × 5 s), the cell lysates were centrifuged at 20,000g for 10 min, supernatants were transferred to fresh tubes, and the total protein concentration was adjusted to 4 mg mL^–1 by the addition of the lysis buffer. […] Following 15 min incubation on ice, stopped reactions were centrifuged at 20,000g for 10 min, and supernatants were analyzed by LC–MS as described above.

[1] = Control reaction without the enzyme (assay buffer, LC-MS/MS); type: physicochemical; conditions: 20 μM 8, assay buffer pH 7.4, 30 °C
Method: as §2
Twenty micromolar solutions of compounds were mixed with 1 μM zHDAC6 in a 96-well plate in an assay buffer comprising 50 mM HEPES, 140 mM NaCl, and 10 mM KCl at pH 7.4. […] Four microliter aliquots of reaction mixtures were injected into the system directly from the 96-well plate, and inhibitors/reaction products were quantitated as described above.

[2] = system: HEK293/HDAC6 cell lysates (stably transfected with human HDAC6); experiment: Inhibitor hydrolysis in HEK293/HDAC6 cell lysates (LC-MS/MS); type: in vitro ADME; conditions: 20 μM 8, 2.5 mg mL^–1 protein, 37 °C
Method: HEK293 cells stably transduced with full-length human HDAC6 were generated following the protocol published previously.[40] Briefly, Lenti-X 293T and HEK293T cells were grown in T75 flasks in the DMEM/F-12/10% fetal bovine serum (FBS) medium under an atmosphere containing 5% CO2 at 37 °C. The Lenti-X 293T cells were transfected with the combination of pMD.2G, psPAX2, and pHR_CMV_MM320_hsHD6 (Figure S2) using Lipofectamine2000 (Invitrogen) according to the manufacturer’s protocol. Three days post-transfection, the virion-rich medium was collected by centrifugation, supplemented with polybrene (final concentration 10 μg mL^–1), and added to adherent HEK293T cells grown to 100% confluency. Three days post-infection, transduced HEK293T cells were expanded in FreeStyle 293 medium (GIBCO) supplemented with 1% FBS in an Erlenmeyer flask (suspension culture, 110 RPM). Transduction efficacy was determined by flow cytometry analysis to be >95%.
as §1, with “water. […]” for “water.”

CS(=O)(=O)N(Cc1ccc(-c2nnc(C(F)F)o2)cn1)c1cccc(Cl)c1 [compound 8]
time of near-complete depletion of the inhibitor (wild-type zHDAC6): approximately 120 min | time to full hydrolysis of the inhibitor (wild-type zHDAC6): < 180 min | hydrolysis in HEK293T cell lysate (HEK293T cell lysates): hydrolyzed 8 to 6 and 4 | hydrolysis in the control reaction without the enzyme [1]: no hydrolysis was observed | efficiency of hydrolysis in HEK293/HDAC6 lysate versus HEK293 lysate [2]: more efficient | hydrolysis in HEK293/HDAC6 cell lysate [2]: hydrolyzed 8 to 6 and 4
